Patent publication US20260092179A1, “GENETICALLY MODIFIED HOST CELLS PRODUCING VIOLACEIN, ANALOGUES, AND DERIVATIVES THEREOF” (OCTARINE BIO APS, priority 2022, published 2026)
Values belong to the compound of their own block, whether it stands above or below them.

How the values were obtained:
[1] = Free radical scavenging ability of dyed Nylon 6,6 fabric (DPPH); assay type: biochemical; details: dyed Nylon 6,6 fabric strip; for OD517: 1 h in the dark in 5×10^−5 M DPPH in 100% ethanol; for Scavenging ability %: 1 h in the dark in 5×10^−5 M DPPH, vs undyed control
Description: Violacein is reported as being a potent antioxidant able to effectively scavenge free radicals. […] To test this, 1.5×1.5 cm dyed Nylon 6,6 fabric strips were incubated in the dark at room temperature for 1 h in 5 mL of a 5×10^−5 M DPPH free radical solution in 100% ethanol. Undyed Nylon 6,6 fabric strips were included as a negative control. After 1 h absorbance was measured at 517 nm and % scavenging ability calculated as above.

[2] = test system: E. coli DH5a; test: Antimicrobial activity of dyed Nylon 6,6 fabric: final OD600 and % inhibition; assay type: cell-based; details: for Final OD600: E. coli cultured overnight at 30° c. with dyed Nylon 6,6 fabric strip, starting OD600 0.1; for % Inhibition: E. coli, dyed Nylon 6,6 fabric vs undyed fabric control
Description: (§1) Violacein is reported as being a potent antibiotic, capable of inhibiting the growth of a wide range of microbial kingdoms including bacteria, yeast, fungi, viruses, protozoa and nematode. […] To test this, overnight cultures of wild-type E. coli DH5a and S. cerevisiae S228c strains were diluted in 5 mL of cultivation media (LB for E. coli, minimal media for S. cerevisiae) to a starting OD600 of 0.1. 1.5×1.5 cm dyed Nylon 6,6 fabric strips were sterilized by submerging in 75% ethanol for 15 mins and air drying in a laminar air flow hood before adding to each culture (with undyed Nylon 6,6 fabric as a negative control). […] This experiment provides evidence that all violacein derivatives display antimicrobial properties.

[3] = test system: S. cerevisiae S228c; test: as above; assay type: cell-based; details: for Final OD600: S. cerevisiae cultured overnight at 30° c. with dyed Nylon 6,6 fabric strip, starting OD600 0.1; for % Inhibition: S. cerevisiae, dyed Nylon 6,6 fabric vs undyed fabric control
Description: as §1

[4] = UV absorption capability (absorbance maxima, UV-A, UV-B, UV-C absorption) by HPLC; assay type: physicochemical; details: for UV absorption capability in the UV-C region: 245 nm; for Total UV absorption UV C (245 nm): AUC of HPLC peak at 245 nm per mM; for Total UV absorption UV B (305 nm): AUC of HPLC peak at 305 nm per mM; for Total UV absorption UV A (360 nm): AUC of HPLC peak at 360 nm per mM
Description: The software Agilent Openlab CDS Chemstation Rev.
Violacein is reported as being a potent UV absorbent able to effectively absorb UV radiation, however, much less is known about the other violacein derivatives. To investigate the potential of using violacein and violacein derivatives as UV inhibitors and to potentially impart UV protection to fabrics, the UV absorption spectra of each compound was analyzed by HPLC and the total absorption capability at each of the most relevant UV wavelengths quantified.
For the quantification of UV absorption capacity of the compound of interest, a chromatographic separation on the F5 column and a gradient of water/acetonitrile containing 0.05% formic acid was run according to Example 5). […] The compounds were quantified based on the signal at 230 nm, using calibration curves of authentic analytical standards.
The UV absorption capacity is represented in mAU.min/mM. UV-A, UV-B and UV-C represent the most relevant regions where UV protection is required. UV-C is the most harmful type of UV radiation and can be generated by inorganic sources. UV-B radiation predominantly comes from the suns rays and is responsible for sun burn. UV-A radiation is also derived predominantly from the suns rays, and while UV-A radiation is less harmful than UV-B or UV-C but is much more prevalent.

[5] = Artificial light stability of dyed fabrics (colour fastness, ΔE); assay type: physicochemical; details: for ΔE: before vs after LED lamp, room temperature, 16 h
Description: In order to assess the stability and colour fastness of violacein and violacein derivatives dyed onto fabrics, dyed fabrics were subjected to a number of conditions. Fabrics were dyed according to Example 18 and colour coordinates and colour change before and after exposure to a given condition were determined as described in Example 18. To measure temperature stability, fabrics were incubated in an oven set to 80° c. for 4 h. To measure stability under acid and alkaline conditions, fabrics were fully submerged in water solutions set to pH 8 with NaOH and pH 5 with HCl and incubated at room temperature for 30 minutes. Fabrics were then incubated at 37° c. for 4 h. To measure stability during laundering, fabrics were washed at 30° c. under the “mix” setting of a Siemens IQ300 washing machine, then dried in a Siemens IQ300 dryer until dry. To measure artificial light stability, fabrics were placed under an LED lamp at room temperature for 16 h. To measure UV light stability, fabrics were placed under a UV lamp at room temperature for 1 h.

[6] = dyed Nylon 6,6 fabric strip in culture, overnight 30° c., OD600 versus undyed fabric
[7] = Acrylic, after test (LED lamp, room temperature, 16 h)
[8] = Bleached cotton, after test (LED lamp, room temperature, 16 h)
[9] = Diacetate, after test (LED lamp, room temperature, 16 h)
[10] = Nylon 6,6, after test (LED lamp, room temperature, 16 h)
[11] = Polyester, after test (LED lamp, room temperature, 16 h)
[12] = Wool, after test (LED lamp, room temperature, 16 h)

UV absorption capability in the UV-C region [4]: particularly high
Total UV absorption UV C (245 nm) [4]: 8876.8 (mAU · min)/mM
Total UV absorption UV B (305 nm) [4]: 1011.6 (mAU · min)/mM
Total UV absorption UV A (360 nm) [4]: 411.4 (mAU · min)/mM
L [5, 7]: 69.82
a [5, 7]: 3.01
b [5, 7]: 3.46
L ([5]; Acrylic, before test): 65.94
a ([5]; Acrylic, before test): 3.06
b ([5]; Acrylic, before test): 1.37
ΔE ([5]; Acrylic): 4.41
L [5, 8]: 62.61
a [5, 8]: 4.18
b [5, 8]: −6.26
L ([5]; Bleached cotton, before test): 60.03
a ([5]; Bleached cotton, before test): 2.81
b ([5]; Bleached cotton, before test): −7.43
ΔE ([5]; Bleached cotton): 3.15
L [5, 9]: 52.2
a [5, 9]: 6.06
b [5, 9]: 1.03
L ([5]; Diacetate, before test): 43.88
a ([5]; Diacetate, before test): 8.03
b ([5]; Diacetate, before test): 13.02
ΔE ([5]; Diacetate): 14.73
L [5, 10]: 34.82
a [5, 10]: 4.72
b [5, 10]: −17.83
L ([5]; Nylon 6,6, before test): 38.2
a ([5]; Nylon 6,6, before test): 11.52
b ([5]; Nylon 6,6, before test): −16.9
ΔE ([5]; Nylon 6,6): 7.65
L [5, 11]: 73.11
a [5, 11]: 2.28
b [5, 11]: 1.66
L ([5]; Polyester, before test): 68.58
a ([5]; Polyester, before test): 3.06
b ([5]; Polyester, before test): −1.75
ΔE ([5]; Polyester): 5.72
L [5, 12]: 71.32
a [5, 12]: 1.18
b [5, 12]: 3.25
L ([5]; Wool, before test): 67.82
a ([5]; Wool, before test): 1.06
b ([5]; Wool, before test): 0.85
ΔE ([5]; Wool): 4.25
Structure (SMILES): O=C1NC(c2c[nH]c3ccc(O)cc23)=C/C1=C1\C(=O)Nc2ccccc21 [violacein]
OD517 [1]: 1.64
Scavenging ability % [1]: 27.53%
Final OD600 [2]: 4.16
% Inhibition [2]: 20.24%
growth inhibition of E. coli [2, 6]: most inhibited
Final OD600 [3]: 4.64
% Inhibition [3]: 13.43%

UV absorption capability in the UV-C region [4]: particularly high
Total UV absorption UV C (245 nm) [4]: 9251.6 (mAU · min)/mM
Total UV absorption UV B (305 nm) [4]: 0 (mAU · min)/mM
Total UV absorption UV A (360 nm) [4]: 702.8 (mAU · min)/mM
L [5, 7]: 64.84
a [5, 7]: 0.76
b [5, 7]: 2.12
L ([5]; Acrylic, before test): 60.52
a ([5]; Acrylic, before test): 1.59
b ([5]; Acrylic, before test): −2.77
ΔE ([5]; Acrylic): 6.58
L [5, 8]: 62.47
a [5, 8]: 2
b [5, 8]: −6.81
L ([5]; Bleached cotton, before test): 60.49
a ([5]; Bleached cotton, before test): 0.97
b ([5]; Bleached cotton, before test): −7.49
ΔE ([5]; Bleached cotton): 2.33
L [5, 9]: 49.82
a [5, 9]: 9.13
b [5, 9]: −9.9
L ([5]; Diacetate, before test): 47.05
a ([5]; Diacetate, before test): 13.99
b ([5]; Diacetate, before test): −17.37
ΔE ([5]; Diacetate): 9.33
L [5, 10]: 46.23
a [5, 10]: 5.57
b [5, 10]: −18.4
L ([5]; Nylon 6,6, before test): 43.65
a ([5]; Nylon 6,6, before test): 5.57
b ([5]; Nylon 6,6, before test): −20.95
ΔE ([5]; Nylon 6,6): 3.63
L [5, 11]: 70.32
a [5, 11]: 0.28
b [5, 11]: 2.09
L ([5]; Polyester, before test): 64.39
a ([5]; Polyester, before test): 1.76
b ([5]; Polyester, before test): −4.83
ΔE ([5]; Polyester): 9.23
L [5, 12]: 69.63
a [5, 12]: 0.44
b [5, 12]: 3.2
L ([5]; Wool, before test): 64.28
a ([5]; Wool, before test): −0.4
b ([5]; Wool, before test): −0.37
ΔE ([5]; Wool): 6.49
Structure (SMILES): O=C1NC(c2c[nH]c3ccccc23)=C/C1=C1\C(=O)Nc2ccccc21 [deoxyviolacein]
OD517 [1]: 1.43
Scavenging ability % [1]: 37.05%
Final OD600 [2]: 4.62
% Inhibition [2]: 11.45%
Final OD600 [3]: 4.99
% Inhibition [3]: 6.90%

Structure (SMILES): O=C1N=C(c2c[nH]c3ccc(O)cc23)C=C1c1c[nH]c2ccccc12 [proviolacein]
OD517 [1]: 1.88
Scavenging ability % [1]: 17.27%
Final OD600 [2]: 4.52
% Inhibition [2]: 13.33%
Final OD600 [3]: 4.39
% Inhibition [3]: 18.13%
growth inhibition of S. cerevisiae [3, 6]: most inhibited
UV absorption capability in the UV-B region ([4]; 305 nm): particularly high
Total UV absorption UV C (245 nm) [4]: 3142.9 (mAU · min)/mM
Total UV absorption UV B (305 nm) [4]: 4097.7 (mAU · min)/mM
Total UV absorption UV A (360 nm) [4]: 0 (mAU · min)/mM
L [5, 7]: 58.47
a [5, 7]: −0.05
b [5, 7]: 2.76
L ([5]; Acrylic, before test): 56.17
a ([5]; Acrylic, before test): −0.68
b ([5]; Acrylic, before test): 3.21
ΔE ([5]; Acrylic): 2.43
L [5, 8]: 62.69
a [5, 8]: 3.04
b [5, 8]: 3.55
L ([5]; Bleached cotton, before test): 58.83
a ([5]; Bleached cotton, before test): −0.52
b ([5]; Bleached cotton, before test): 4.04
ΔE ([5]; Bleached cotton): 5.27
L [5, 9]: 63.43
a [5, 9]: 4.56
b [5, 9]: 7.02
L ([5]; Diacetate, before test): 56.45
a ([5]; Diacetate, before test): 3.46
b ([5]; Diacetate, before test): 5.75
ΔE ([5]; Diacetate): 7.18
L [5, 10]: 51.07
a [5, 10]: −0.68
b [5, 10]: −2.49
L ([5]; Nylon 6,6, before test): 47.03
a ([5]; Nylon 6,6, before test): −1.98
b ([5]; Nylon 6,6, before test): −2.52
ΔE ([5]; Nylon 6,6): 4.24
L [5, 11]: 65.01
a [5, 11]: −0.35
b [5, 11]: 1.74
L ([5]; Polyester, before test): 59.49
a ([5]; Polyester, before test): −1.38
b ([5]; Polyester, before test): 2.13
ΔE ([5]; Polyester): 5.63
L [5, 12]: 67.51
a [5, 12]: −0.15
b [5, 12]: 6.46
L ([5]; Wool, before test): 65.25
a ([5]; Wool, before test): −0.55
b ([5]; Wool, before test): 5.71
ΔE ([5]; Wool): 2.41
